Reference: patent publication US20200171166A1, “GEL COMPOSITION AND METHOD FOR PRODUCING GEL COMPOSITION” (Shimadzu Corporation, priority 2015, published 2020)

Tested on: three-dimensional cultured corneal epithelium model from human normal corneal epithelium cells (LabCyte CORNEA-MODEL)
Assay: Irritativeness test using a cornea model (WST-8 assay)
Assay type: cell-based
Conditions: exposure to 50 μL of test substance
Method: Prepared as test substances were hydrogels made under the same conditions as in the above preparation examples 3A to 3C (prepared from methanol gel, ethanol gel, and 2-butanol gel, respectively); solution in which 611 mg of NMP was added to 500 mg of PLGA; NMP; and distilled water (negative reference). A standard protocol was followed using a three-dimensional cultured corneal epithelium model from human normal corneal epithelium cells (J-TEC, LabCyte CORNEA-MODEL), and exposure tests were carried out on 50 μL of the test substances. Using a WST-8 assay kit (Dojin Chemical, product code: CK04), following the exposure test, a WST-8 assay was done on the samples, the OD value was measured with a plate reader (TECAN, Infinite 200 Pro), and the relative survival rate (proportion of live cells) was calculated for the negative object (distilled water).

With `CN1CCCC1=O` [NMP, N-methyl pyrrolidone] the “irritativeness toward the cornea” value was “strong”.
